Experiments:
Type in all cases: functional
[1] = Effect on copper-induced human LDL peroxidation assessed as inhibition of malonaldehyde production at 2 uM after 4 hrs; set-up: scale not given: the % may be the effect or the level left
[2] = Effect on copper-induced human LDL peroxidation assessed as inhibition of malonaldehyde production at 5 uM after 4 hrs; set-up: scale not given: the % may be the effect or the level left
[3] = Effect on copper-induced human LDL peroxidation assessed as inhibition of malonaldehyde production at 10 uM after 4 hrs; set-up: scale not given: the % may be the effect or the level left
[4] = Effect on copper-induced human LDL peroxidation assessed as inhibition of malonaldehyde production at 20 uM after 4 hrs; set-up: scale not given: the % may be the effect or the level left
[5] = Effect on copper-induced human LDL peroxidation assessed as inhibition of malonaldehyde production at 50 uM after 4 hrs; set-up: scale not given: the % may be the effect or the level left
[6] = Effect on copper-induced human LDL peroxidation assessed as inhibition of malonaldehyde production at 100 uM after 4 hrs; set-up: scale not given: the % may be the effect or the level left
[7] = Effect on copper-induced human LDL peroxidation assessed as inhibition of malonaldehyde production at 200 uM after 4 hrs; set-up: scale not given: the % may be the effect or the level left
[8] = Protective effect on copper-induced LDL oxidation at 20:1 copper to drug ratio relative to 40 uM copper
[9] = Protective effect on copper-induced LDL oxidation at 1:1.25 copper to drug ratio relative to 40 uM copper
[10] = Protective effect on copper-induced LDL oxidation at 1:2.5 copper to drug ratio relative to 40 uM copper
[11] = Protective effect on copper-induced LDL oxidation at 1:5 copper to drug ratio relative to 40 uM copper
[12] = Protective effect on copper-induced LDL oxidation at 8:1 copper to drug ratio relative to 40 uM copper
[13] = Protective effect on copper-induced LDL oxidation at 4:1 copper to drug ratio relative to 40 uM copper
[14] = Protective effect on copper-induced LDL oxidation at 2:1 copper to drug ratio relative to 40 uM copper

SMILES | Activity [1] [%] | Activity [2] [%] | Activity [3] [%] | Activity [4] [%] | Activity [5] [%] | Activity [6] [%] | Activity [7] [%] | Activity [8] [%] | Activity [9] [%] | Activity [10] [%] | Activity [11] [%] | Activity [12] [%] | Activity [13] [%] | Activity [14] [%]
NCCCC(=O)N[C@@H](Cc1cnc[nH]1)C(=O)O | 0.31 | 1.02 | 1.86 | 2.5 | 8.28 | 12.1 | 17.6 | 0 | 8 | 12 | 18 | 1 | 2 | 3
NCCC(=O)N[C@@H](Cc1c[nH]cn1)C(=O)O | 0.28 | 0.93 | 1.38 | 2.72 | 9.13 | 15.1 | 22.5 | 0 | 9 | 15 | 22 | 1 | 1 | 3
OC[C@H]1O[C@@H]2O[C@H]3[C@H](O)[C@@H](O)[C@@H](O[C@H]4[C@H](O)[C@@H](O)[C@@H](O[C@H]5[C@H](O)[C@@H](O)[C@@H](O[C@H]6[C@H](O)[C@@H](O)[C@@H](O[C@H]7[C@H](O)[C@@H](O)[C@@H](O[C@H]8[C@H](O)[C@@H](O)[C@@H](O[C@H]1[C@H](O)[C@H]2O)O[C@@H]8CO)O[C@@H]7CO)O[C@@H]6CO)O[C@@H]5CO)O[C@@H]4CO)O[C@@H]3CO | 0.11 | 0.38 | 0.65 | 1.26 | 3.87 | 6.94 | 10.7 |  |  |  |  |  |  | 

Reference: ChEMBL document CHEMBL1147871, “Synthesis and antioxidant activity of new homocarnosine beta-cyclodextrin conjugates” (Eur J Med Chem, 2007)
